According to ChEMBL document CHEMBL1157539, “Thousands of chemical starting points for antimalarial lead identification” (Nature, 2010):
Values joined by “and” are separate entries in the source; they are usually repeats but may differ in a detail not shown here. Equal entries are not always repeated.

Each compound was assayed on Plasmodium falciparum (assay: GSK_TCMDC: Inhibition of Plasmodium falciparum 3D7 in whole erythrocytes, using parasite LDH activity as an index of growth.). Details: not given.
Format: functional, organism-based

Row | Structure (SMILES) | XC50
1 | O=C(/C=C/c1c(Cl)cccc1Cl)NC1CCC(CN2CCC(c3c[nH]c4ccccc34)CC2)CC1 (stereo not given) | 814 nM and 373 nM

Same assay, conditions: Plasmodium falciparum, 3D7

Row | Structure (SMILES) | XC50
2 | CCNC(C)(C)CN(Cc1ccc(-c2ccc(C(F)(F)F)cc2)cc1)C(=O)Cn1c(SCc2ccc(F)cc2)nc(=O)c2c1CCC2 | 991 nM
3 | O=c1cc(N2CCNCC2)c(Cl)nn1Cc1ccc(NS(=O)(=O)c2ccc(Oc3ccccc3)cc2)cc1 | 574 nM
4 | Cc1cc2nc(-c3ccc(/C=C/C(=O)NCCCc4ccccc4)cc3)[nH]c2cc1C | 955 nM
5 | COc1ccc2[nH]c(C)cc(=NN=Cc3ccc(F)cc3)c2c1 | 191 nM
6 | COCCn1c(-c2cccc(Cl)c2)nn(-c2ccc([N+](=O)[O-])cc2Cl)c1=S | 737 nM
7 | CN(C)CCCOc1ccc(CCNCc2cccc(Oc3ccc(Cl)cc3)c2)cc1 | 887 nM
8 | COc1ccc(N2CCN(CCCNC(=O)c3ccc(NC(=O)c4cc(Cl)cc(Cl)c4)cc3)CC2)c(OC)c1 | 269 nM
9 | COc1cc2c(c(OC)c1[N+](=O)[O-])C=CC1(O2)N(C)c2ccc([N+](=O)[O-])cc2C1(C)C (stereo not given) | 905 nM
10 | Fc1ccc(Nc2nnc(CNC3CCN(Cc4ccc(Cl)c(Cl)c4)CC3)[nH]2)cc1 | 1380 nM
11 | O=C(C=Cc1ccc(Br)cc1)NC1CCC(CN2CCC(c3c[nH]c4ccccc34)CC2)CC1 (stereo not given) | 682 nM
12 | O=C(Nc1cccc(CN2CCCN(Cc3ccccc3)CC2)c1)c1ccc(Cl)c(Cl)c1 | 896 nM
13 | CNC(=O)COc1ccc(Nc2nnc(-c3ccc(C)c(S(=O)(=O)NCC4CCCO4)c3)c3ccccc23)cc1 (stereo not given) | 933 nM
14 | Cc1cccc(S(=O)(=O)Nc2cccc(CCN3CCC(N4CCCCC4)CC3)c2)c1 | 1330 nM
15 | O=c1n[n+](C2CCCCC2)[n-]o1 | 934 nM
16 | Fc1cccc2sc(Nc3nc(-c4ccccn4)cs3)nc12 | 906 nM
17 | COc1ccc(-c2csc(C(=O)NC3CCC(N4CCC(c5ccccc5C)CC4)CC3)c2)cc1 (stereo not given) | 378 nM
18 | c1cc(CN2CCc3ccccc3CC2)cc(-c2c[nH]c3nc(NC4CCCC4)ncc23)c1 | 800 nM
19 | Cc1cccc2nc(-c3ccc(-c4cccc(CNCc5ccccc5)c4)s3)[nH]c12 | 741 nM
20 | O=C(Cn1c(CCc2cccc(F)c2F)cc(=O)c2cccnc21)N(CCCn1ccnc1)Cc1ccc(-c2ccc(C(F)(F)F)cc2)cc1 | 797 nM
21 | OCC(CO)(CO)NCc1ccc2c3c(cccc13)-c1ccccc1-2 | 1260 nM
22 | c1ccc(-c2cc(NCCCCNc3cc(-c4ccccc4)nc4ccccc34)c3ccccc3n2)cc1 | 133 nM
23 | CCc1nc2nc(C)cc(Nc3cc(C)cc(C)c3)n2n1 | 294 nM
24 | COc1ccc(NC(=O)/C=C/c2ccccc2Cl)cc1OCCN1CCC(c2nc3ccccc3[nH]2)CC1 | 858 nM
25 | CN(C)CCNC(=O)c1cccc(-c2cnc3ccc(NCc4ccc(Cl)c(Cl)c4)nn23)c1 | 698 nM

Row | Structure (SMILES) | XC50
26 | COc1ccc(NC(=O)/C=C/c2ccccc2Cl)cc1OCCN1CCC(N2CCCCC2)CC1 | 901 nM
27 | Cc1nnc2c(N(C(=O)NCCc3ccccc3)C(=O)NCCc3ccccc3)cc3cc(Cl)ccc3n12 | 954 nM
28 | Cc1cc(N[C@@H](C)C(=O)Nc2ccccc2)nc(NCCc2ccc(F)cc2)n1 | 1110 nM
29 | CCC(C)C(COC(=O)c1cc(OC)c(OC)c(OC)c1)N(C)CCN(C)C(COC(=O)c1cc(OC)c(OC)c(OC)c1)C(C)CC (stereo not given) | 947 nM
30 | COc1ccc(-c2ccc(NC(=O)c3cccc(Cl)c3)cc2)cc1CN1CCCN(C)CC1 | 603 nM
31 | FC(F)(F)c1ccc2[nH]c(-c3cccc(-c4cccc(CNCCN5CCNCC5)c4)c3)nc2c1 | 937 nM
32 | O=C(Nc1ccc(OC2CCN(Cc3ccc(F)cc3)C2)c(Cl)c1)c1ccoc1 (stereo not given) | 938 nM
33 | CN1CCN(CCCCNc2c3ccccc3nc3ccccc23)CC1 | 704 nM
34 | CC(Cc1ccc(OCCN2CCN(c3cccc(C(F)(F)F)c3)CC2)cc1)NCC(O)c1cccc(C(F)(F)F)c1 (stereo not given) | 181 nM
35 | CC(=O)Nc1ccc(CN2CCC(NC(=O)c3ccc(-c4cccc(OC(C)C)c4)s3)CC2)cc1 | 1460 nM
36 | O=C(N[C@H]1CCN(Cc2ccc(OCCN3CCNCC3)c(Br)c2)C1)c1ccc(Cl)c(Cl)c1 | 484 nM
37 | OC(CNCc1ccccc1OCc1ccccc1)c1cccc(Cl)c1 (stereo not given) | 219 nM
38 | c1ccc(-c2ccc3c(Nc4ccc5[nH]ncc5c4)ccnc3c2)nc1 | 822 nM
39 | O=C(NCC1CCC(C(=O)O)CC1)c1ccc(/C=C/C(=O)N2CCc3ccccc3C2c2ccc3c(c2)OCO3)cc1 (stereo not given) | 892 nM
40 | c1cc(CN2CCCCC2)cc(-c2ccc(-c3nc4ccccc4[nH]3)s2)c1 | 869 nM
41 | CC(C)(CNCc1ccc(C(F)(F)F)cc1)c1nc(-c2ccc(Cl)c(O)c2)c(-c2ccncc2)[nH]1 | 734 nM
42 | Cn1nccc1C(=O)NCCNCc1cccc(-c2cccc(-c3nc4cc(F)ccc4[nH]3)c2)c1 | 261 nM
43 | CCCN(c1ccc(C(F)(F)F)cc1[N+](=O)[O-])S(=O)(=O)C(c1ccccc1)c1ccc(C(F)(F)F)cc1[N+](=O)[O-] (stereo not given) | 1220 nM
44 | Cc1cc(NC2CCN(Cc3ccccc3)CC2)nc(NCCCCc2ccccc2)n1 | 383 nM
45 | Cc1cccc(CN2CCCN(Cc3cccc(C(=O)Nc4ccc(C(C)(C)C)cc4)c3)CC2)c1 | 934 nM
46 | CCn1cc(C=C2Oc3c(ccc(O)c3CN3CCCCC3C)C2=O)c2ccccc21 (stereo not given) | 1020 nM
47 | COc1ccccc1CNC(=O)c1cc(OC)c(OC)cc1NC(=O)c1cccs1 | 1440 nM
48 | Cc1cc(CNCCCCCCCNCc2ccc(-c3ccccc3)cc2)ccc1O | 493 nM
49 | CCOC(=O)c1cc(Cl)cc(Cl)c1OCCCON1C(=N)N=C(N)NC1(C)C | 3.2 nM

Row | Structure (SMILES) | XC50
50 | O=C(NCc1ccccc1)C1Cc2c([nH]c3ccc(Br)cc23)C2(CCN(Cc3ccccc3)CC2)N1 (stereo not given) | 873 nM
51 | COc1cc(NC(=O)C(c2ccc(Cl)cc2)C(C)C)cc(OC)c1 (stereo not given) | 723 nM
52 | O=c1ccc(CNc2nc(NCCc3ccccc3)nc3cc(Cl)ccc23)c[nH]1 | 298 nM
53 | CO/C(=C\C=C\c1cc2cc(Cl)c(Cl)cc2[nH]1)C(=O)NCCCN1CCN(c2cccc(OCC(=O)Nc3cccc(C(=O)c4ccccc4)c3)c2)CC1 | 686 nM
54 | CCN(CCNS(C)(=O)=O)c1ccc(N)c(C)c1 | 875 nM
55 | CCOc1ccc(C(=O)Nc2cc(Br)c3c(c2)CNCC3)cc1C(F)(F)F | 939 nM
56 | O=C(Nc1ccc(Cl)c(Cl)c1)Nc1ccc2nccc(N3CCNCC3)c2c1 | 262 nM
57 | Cc1cc(C(=O)CN2C(=O)NC3(CCCc4ccccc43)C2=O)c(C)n1Cc1ccco1 (stereo not given) | 1100 nM
58 | Cc1cccc2nc(-c3cccc(-c4ccc(NC(=O)NCc5ccccc5)cc4)c3)[nH]c12 | 231 nM
59 | CCOC(=O)c1nc(-c2ccccc2)[nH]c1-n1nc(C)cc1C | 686 nM
60 | CCN(CC)CCN(Cc1ccc(-c2ccc(C(F)(F)F)cc2)cc1)C(=O)Cn1c(CCc2ccc(F)c(C#N)c2)nc(=O)c2ccccc21 | 769 nM
61 | Cc1cc(C2CCCCN2C)ccc1-c1ccc(C(=O)N2CCc3cc4c(cc32)C2(CCN(C)CC2)CO4)cc1 (stereo not given) | 791 nM
62 | CCNc1cc(C)nc(Nc2ccc(NC(=O)c3ccccc3Br)cc2)n1 | 742 nM
63 | O=C(Nc1ccc(OC2CCN(Cc3ccc(F)cc3)C2)c(Cl)c1)c1ccc(F)cc1 (stereo not given) | 490 nM
64 | CCOC(=O)C1=C(C)N=c2sc(=Cc3ccccc3O)c(=O)n2C1c1ccc(OC)c2ccccc12 (stereo not given) | 1260 nM
65 | COc1ccc(CCNCc2ccc3nc(N)cc(C)c3c2)cc1 | 214 nM
66 | O=C(Nc1ccc2c(c1)CCN(C1CCC1)CC2)c1ccc(-n2ccnc2)cn1 | 373 nM
67 | CN(c1ccc2c(c1)nc(NC(=O)C1(c3cc(F)ccc3F)CC1)n2C)c1ccnc(Nc2cccc(CS(C)(=O)=O)c2)n1 | 1100 nM
68 | Cc1cccc2nc(-c3cccc(-c4ccc(NC(=O)c5cnn6cccnc56)cc4)c3)[nH]c12 | 212 nM
69 | CN(Cc1cccc(F)c1)C1CCCN(c2cc(NC(=O)c3ccccc3)ccn2)C1 (stereo not given) | 919 nM
70 | Cc1ccc(CNC(=O)[C@H](Cc2ccccc2)Nc2cc(C)nc(NCC3CCCCC3)n2)cc1 | 899 nM
71 | Cc1cc(N(C)C)nc(Nc2ccc(NC(=O)Nc3ccccc3)cc2)n1 | 134 nM
72 | Cc1cc(F)ccc1-c1nc(NCCCN2CCCC2=O)nc2c1ccc(=O)n2-c1c(F)cccc1F | 1020 nM
73 | c1cc2[nH]c(CCCCc3nc4cc(C5=N[C@H]6CCCC[C@H]6N5)ccc4[nH]3)nc2cc1C1=N[C@H]2CCCC[C@H]2N1 | 415 nM

Row | Structure (SMILES) | XC50
74 | CN1CCCN(Cc2cccc(-c3ccc(NC(=O)c4cccc(Cl)c4)cc3)c2)CC1 | 927 nM
75 | CC(C)(C)c1ccc(NC(=O)c2ccc(CN3CCCN(Cc4ccc(F)cc4)CC3)cc2)cc1 | 1110 nM
76 | COc1ccc(O)cc1/C=N/Nc1ccnc2cc(Cl)ccc12 | 544 nM
77 | CC1CN(c2ccc(NC(=O)c3ccsc3)cc2C(=O)N2CCN(Cc3ccc(C(C)(C)C)cc3)CC2)CC(C)O1 (stereo not given) | 866 nM
78 | COc1cccc(C(=O)NCc2nnc(S)n2-c2ccc(Cl)c(Cl)c2)c1 | 173 nM
79 | CCc1nc2ccc(C(=O)OC)nc2n1Cc1ccc2oc(-c3ccccc3N)c(Br)c2c1 | 822 nM
80 | Cc1cc(N)c2cc(NC(=O)/C=C/c3ccc([N+](=O)[O-])cc3)ccc2n1 | 669 nM
81 | OC(COCc1ccc(-c2ccccc2)cc1)CN1CCCCC1 (stereo not given) | 269 nM
82 | Cc1ccc(F)c(OCC2CCN(c3ccc(C(=O)NC4CC4)cn3)CC2)c1 | 733 nM
83 | COc1ccccc1Cc1c(C)nc2nc(N)nc(N)c2c1C | 569 nM
84 | Clc1ccc(OCCC2CCN(CCCCCCN3CCCCC3)CC2)cc1Cl | 1140 nM
85 | COc1cc2c(cc1OC)C(C(=O)c1ccccc1)=NCC2 | 1090 nM
86 | CCOC(=O)c1ccc(-c2cnc(N)c(-c3nc4cccc(C)c4[nH]3)c2)cc1 | 281 nM
87 | CCOc1ccc2[nH]c(C)cc(=NN=Cc3ccc(Cl)cc3)c2c1 | 763 nM
88 | OC(CNc1ccnc(Nc2ccc(Cl)cc2)n1)c1ccc(C(F)(F)F)cc1 (stereo not given) | 771 nM
89 | O=C1O[C@H](c2ccccc2)[C@H](c2ccccc2)N(C(=O)OCc2ccccc2)[C@H]1Cc1ccccc1C1CCCC1 | 59.1 nM
90 | CCc1c[nH]c2c(N3CCCC3=O)cc(C(=O)N[C@@H](Cc3ccccc3)[C@H](O)CNC(C)(C)c3cccc(OC)c3)cc12 | 192 nM
91 | O=C(Nc1cccc(CN2CCCN(Cc3ccc(O)cc3)CC2)c1)c1cc(F)cc(F)c1 | 658 nM
92 | Nc1ccnc(N2CCC(CCOc3cc(C(F)(F)F)nc4c(C(F)(F)F)cccc34)CC2)c1 | 792 nM
93 | N#Cc1cccc(Nc2nccc(NCC(O)c3cccc(C(F)(F)F)c3)n2)c1 (stereo not given) | 553 nM
94 | CC(Cc1ccc([N+](=O)[O-])cc1)NCC(O)c1cccc(C(F)(F)F)c1 (stereo not given) | 898 nM
95 | COc1ccc(-c2cc(C(=O)N3CCc4ccccc43)c3ccccc3n2)cc1OC | 327 nM
